Test results reported in PubChem BioAssay (NCI).
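GI50: concentration for 50% inhibition of growth. TGI: total growth inhibition.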

Tests used:
Assay in all cases: NCI tumour cell line growth inhibition, 384-well format
MDA-MB-435 melanoma = test system: MDA-MB-435 melanoma
TK-10 renal = test system: TK-10 renal
DU-145 prostate = test system: DU-145 prostate
SK-MEL-2 melanoma = test system: SK-MEL-2 melanoma
KM12 colon = test system: KM12 colon
MCF7 breast = test system: MCF7 breast
RXF 393 renal = test system: RXF 393 renal
ACHN renal = test system: ACHN renal
M14 melanoma = test system: M14 melanoma
UO-31 renal = test system: UO-31 renal
IGROV1 ovarian = test system: IGROV1 ovarian
OVCAR-3 ovarian = test system: OVCAR-3 ovarian
SNB-75 CNS = test system: SNB-75 CNS
U251 glioblastoma = test system: U251 glioblastoma
SK-MEL-28 melanoma = test system: SK-MEL-28 melanoma
SW-620 colon = test system: SW-620 colon
SR leukemia = test system: SR leukemia
BT-549 breast = test system: BT-549 breast
786-0 renal = test system: 786-0 renal
OVCAR-8 ovarian = test system: OVCAR-8 ovarian
NCI-H322M lung = test system: NCI-H322M lung
PC-3 prostate = test system: PC-3 prostate
NCI-H522 lung = test system: NCI-H522 lung
OVCAR-4 ovarian = test system: OVCAR-4 ovarian
CAKI-1 renal = test system: CAKI-1 renal
NCI-H226 lung = test system: NCI-H226 lung
SF-295 CNS = test system: SF-295 CNS
SK-MEL-5 melanoma = test system: SK-MEL-5 melanoma
HS 578T breast = test system: HS 578T breast
MDA-MB-468 breast = test system: MDA-MB-468 breast
EKVX NSCLC = test system: EKVX NSCLC
NCI-H23 lung = test system: NCI-H23 lung
SNB-19 CNS = test system: SNB-19 CNS
HT29 colon = test system: HT29 colon
SF-539 CNS = test system: SF-539 CNS
UACC-257 melanoma = test system: UACC-257 melanoma
SN12C renal = test system: SN12C renal
A549 NSCLC = test system: A549 NSCLC
A498 renal = test system: A498 renal
COLO 205 colon = test system: COLO 205 colon
HL-60(TB) leukemia = test system: HL-60(TB) leukemia
MALME-3M melanoma = test system: MALME-3M melanoma
HCT-116 colon = test system: HCT-116 colon
MDA-MB-231 breast = test system: MDA-MB-231 breast
SK-OV-3 ovarian = test system: SK-OV-3 ovarian
T-47D breast = test system: T-47D breast
HOP-62 NSCLC = test system: HOP-62 NSCLC
MOLT-4 leukemia = test system: MOLT-4 leukemia
K-562 leukemia = test system: K-562 leukemia
HCT-15 colon = test system: HCT-15 colon
SF-268 CNS = test system: SF-268 CNS
OVCAR-5 ovarian = test system: OVCAR-5 ovarian
HOP-92 NSCLC = test system: HOP-92 NSCLC
UACC-62 melanoma = test system: UACC-62 melanoma
NCI-H460 NSCLC = test system: NCI-H460 NSCLC

O=C(Nc1ccc2[nH]nc(-c3ccncc3)c2c1)[C@@H]1CCN(CC(=O)N2CCN(c3ccc(-c4ncccn4)cc3)CC2)C1
GI50 (MDA-MB-435 melanoma): 0.0652 µM | TGI (MDA-MB-435 melanoma): > 100 µM | GI50 (TK-10 renal): 0.853 µM | TGI (TK-10 renal): > 100 µM | GI50 (DU-145 prostate): 4.59 µM | TGI (DU-145 prostate): > 100 µM | GI50 (SK-MEL-2 melanoma): 0.0375 µM | TGI (SK-MEL-2 melanoma): 0.192 µM | GI50 (KM12 colon): 5.61 µM | TGI (KM12 colon): > 100 µM | GI50 (MCF7 breast): 11.6 µM | TGI (MCF7 breast): 26.9 µM | GI50 (RXF 393 renal): 1.05 µM | TGI (RXF 393 renal): 3.55 µM | GI50 (ACHN renal): 8.76 µM | TGI (ACHN renal): > 100 µM | GI50 (M14 melanoma): 0.0253 µM | TGI (M14 melanoma): 0.198 µM | GI50 (UO-31 renal): 2.28 µM | TGI (UO-31 renal): 16.1 µM | GI50 (IGROV1 ovarian): 0.438 µM | TGI (IGROV1 ovarian): 35.7 µM | GI50 (OVCAR-3 ovarian): 19.8 µM | TGI (OVCAR-3 ovarian): > 100 µM | GI50 (SNB-75 CNS): 11.6 µM | TGI (SNB-75 CNS): 25.4 µM | GI50 (U251 glioblastoma): 1.79 µM | TGI (U251 glioblastoma): 22.2 µM | GI50 (SK-MEL-28 melanoma): 0.0186 µM | TGI (SK-MEL-28 melanoma): 0.174 µM | GI50 (SW-620 colon): 0.0863 µM | TGI (SW-620 colon): > 100 µM | GI50 (SR leukemia): 2.68 µM | TGI (SR leukemia): 12 µM | GI50 (BT-549 breast): 2.71 µM | TGI (BT-549 breast): 16.6 µM | GI50 ([…]-0 renal): 9.92 µM | TGI (786-0 renal): 23.6 µM | GI50 (OVCAR-8 ovarian): 2.83 µM | TGI (OVCAR-8 ovarian): 15 µM | GI50 (NCI-H322M lung): 0.623 µM | TGI (NCI-H322M lung): 31.6 µM | GI50 (PC-3 prostate): 5.37 µM | TGI (PC-3 prostate): 20.5 µM | GI50 (NCI-H522 lung): 9.33 µM | TGI (NCI-H522 lung): 22.1 µM | GI50 (OVCAR-4 ovarian): 48.4 µM | TGI (OVCAR-4 ovarian): > 100 µM | GI50 (CAKI-1 renal): 0.507 µM | TGI (CAKI-1 renal): 20.6 µM | GI50 (NCI-H226 lung): 0.735 µM | TGI (NCI-H226 lung): 14.6 µM | GI50 (SF-295 CNS): 13.1 µM | TGI (SF-295 CNS): 37.8 µM | GI50 (SK-MEL-5 melanoma): 0.0781 µM | TGI (SK-MEL-5 melanoma): 4.43 µM | GI50 (HS 578T breast): 10.8 µM | TGI (HS 578T breast): 36 µM | GI50 (MDA-MB-468 breast): 3.55 µM | TGI (MDA-MB-468 breast): 33.8 µM | GI50 (EKVX NSCLC): 2.28 µM | TGI (EKVX NSCLC): 83 µM | GI50 (NCI-H23 lung): 0.0571 µM | TGI (NCI-H23 lung): 0.678 µM | GI50 (SNB-19 CNS): > 100 µM | TGI (SNB-19 CNS): > 100 µM | GI50 (HT29 colon): 0.069 µM | TGI (HT29 colon): 14.2 µM | GI50 (SF-539 CNS): 0.69 µM | TGI (SF-539 CNS): 9.72 µM | GI50 (UACC-257 melanoma): 0.0268 µM | TGI (UACC-257 melanoma): 0.271 µM | GI50 (SN12C renal): 2.28 µM | TGI (SN12C renal): > 100 µM | GI50 (A549 NSCLC): 0.628 µM | TGI (A549 NSCLC): > 100 µM | GI50 (A498 renal): 1.78 µM | TGI (A498 renal): 10 µM | GI50 (COLO 205 colon): 0.0281 µM | TGI (COLO 205 colon): 0.43 µM | GI50 (HL-60(TB) leukemia): 0.0163 µM | TGI (HL-60(TB) leukemia): 1.26 µM | TGI (MALME-3M melanoma): 0.0442 µM | GI50 (HCT-116 colon): 0.0687 µM | TGI (HCT-116 colon): 1.26 µM | GI50 (MDA-MB-231 breast): 0.315 µM | TGI (MDA-MB-231 breast): 32.9 µM | GI50 (SK-OV-3 ovarian): 20.3 µM | TGI (SK-OV-3 ovarian): 90.7 µM | GI50 (T-47D breast): 2.96 µM | TGI (T-47D breast): 9.04 µM | GI50 (HOP-62 NSCLC): 0.661 µM | TGI (HOP-62 NSCLC): 17.4 µM | GI50 (MOLT-4 leukemia): 1.42 µM | TGI (MOLT-4 leukemia): 3 µM | GI50 (K-562 leukemia): 0.273 µM | TGI (K-562 leukemia): 12.8 µM | GI50 (HCT-15 colon): 5.45 µM | TGI (HCT-15 colon): 29.1 µM | GI50 (SF-268 CNS): 17.9 µM | TGI (SF-268 CNS): 73.4 µM | GI50 (OVCAR-5 ovarian): 0.16 µM | TGI (OVCAR-5 ovarian): > 100 µM | GI50 (HOP-92 NSCLC): 0.417 µM | TGI (HOP-92 NSCLC): 2.18 µM | GI50 (UACC-62 melanoma): 0.0166 µM | TGI (UACC-62 melanoma): 0.385 µM | GI50 (NCI-H460 NSCLC): 0.379 µM | TGI (NCI-H460 NSCLC): 17.6 µM
